Source: ChEMBL document CHEMBL4831554, “Diverse, Potent, and Efficacious Inhibitors That Target the EED Subunit of the Polycomb Repressive Complex 2 Methyltransferase” (J Med Chem, 2021)

Legend:
[1] = Intrinsic clearance in human liver microsomes at 1 uM preincubated with NADPH for 5 mins followed by compound addition and measured upto 30 mins by LC-MS/MS analysis; format: ADME, Microsome; settings: read-out: CLH
[2] = Lipophilicity, logD of the compound in Octanol/phosphate buffer at pH 7.4 after 30 mins by shake-flask method; format: physicochemical
[3] = Intrinsic clearance in human hepatocytes assessed per million cells at 1 uM measured upto 30 mins by HPLC analysis; format: ADME, cell-based, Hepatocyte; settings: read-out: CLH
[4] = Volume of distribution at steady state in rat at 1 mg/kg, po or 0.5 mg/kg, iv; format: ADME, organism-based; settings: in vivo, read-out: Vdss
[5] = Clearance in rat at 1 mg/kg, po or 0.5 mg/kg, iv; format: ADME, organism-based; settings: in vivo
[6] = Apparent permeability of compound in human Caco-2 cells; format: ADME, cell-based
[7] = Bioavailability in rat at 1 mg/kg, po or 0.5 mg/kg, iv; format: ADME, organism-based; settings: in vivo

SMILES | microsomal CLint at 1 µM [1] [µL/min/mg] | logD at 0.5 h [2] | other results
CNC(=O)c1ncc(-c2cnc(NCc3c(F)ccc4c3CCO4)c3cn[nH]c(=O)c23)n1C | 24 | 2.5 | 
CN(c1ccccc1)c1cnc(NCc2c(F)ccc3c2CCO3)n2cnnc12 | 55 | 3.6 | 
O=C1CCCN1c1cnc(NCc2c(F)ccc3c2CCO3)n2cnnc12 | < 3 | 1.3 | 
O=C1CCCN1c1cnc(NCc2c(F)ccc3c2CCO3)c2cn[nH]c(=O)c12 | 23 | 1.8 | 
CN(C)Cc1ccc2c(c1)CN(c1cnc(NCc3c(F)ccc4c3CCO4)c3cn[nH]c(=O)c13)C2=O | 32 | 2.2 | 
COc1ccccc1C(=O)Nc1cnc(NCc2c(F)ccc3c2CCO3)n2cnnc12 | 20 | 3.1 | 
Cc1ncccc1-c1cnc(NCc2c(F)ccc3c2CCO3)c2n[nH]c(=O)n12 | 8 | 2.5 | 
CN(C(=O)c1ccccc1)c1cnc(NCc2c(F)ccc3c2CCO3)n2cnnc12 | > 300 | 2.4 | 
CC1(C)CC(=O)N(c2cnc(NCc3c(F)ccc4c3CCO4)n3cnnc23)C1 | 16 | 2 | 
CN(C)Cc1ccc2c(c1)CN(c1cnc(NCc3c(F)ccc4c3CCO4)n3cnnc13)C2=O | 19 | 1.6 | 
Cc1nc(C(=O)N(C)C)ccc1-c1cnc(NCc2c(F)ccc3c2CCO3)c2cn[nH]c(=O)c12 | 19 | 2.1 | hepatocyte CLint at 1 µM [3]: < 1.3 µL/min/1e6 cells; Vd [4]: 1.9 L/kg; clearance [5]: 54 mL/min/kg; Papp ([6]; read-out: Papp): 1.7 ×10⁻⁶ cm/s; bioavailability [7]: 22%
CN(c1cccnc1)c1cnc(NCc2c(F)ccc3c2CCO3)n2cnnc12 | 80 | 2.6 | 
C[C@H]1CC(=O)N(c2cnc(NCc3c(F)ccc4c3CCO4)n3cnnc23)C1 | < 3 | 1.8 | 
O=C1Oc2ccccc2CN1c1cnc(NCc2c(F)ccc3c2CCO3)n2cnnc12 | 24 | 2.7 | 
Fc1ccc2c(c1CNc1ncc(Nc3ccccc3)c3nncn13)CCO2 | 20 | 3.3 | 
O=C1Cc2ccccc2CN1c1cnc(NCc2c(F)ccc3c2CCO3)n2cnnc12 | 16 | 2.7 | 
CN(C)Cc1ccc(C(=O)Nc2cnc(NCc3c(F)ccc4c3CCO4)n3cnnc23)cc1 | 13 | 1.8 | 
Cc1ncccc1-c1cnc(NCc2c(F)ccc3c2CCO3)n2cnnc12 | 15 | 2.5 | hepatocyte CLint at 1 µM [3]: 2.6 µL/min/1e6 cells; Vd [4]: 3.7 L/kg; clearance [5]: 19 mL/min/kg; Papp [6]: 38.7 10^-6 cm/s; bioavailability [7]: 74%
Cc1ncccc1-c1cnc(NCc2c(F)ccc3c2CCO3)c2nn(CC#N)c(=O)n12 | 151 | 2.2 | 
CN(c1ccn(C)n1)c1cnc(NCc2c(F)ccc3c2CCO3)c2cn[nH]c(=O)c12 | 62 | 2.4 | 
CN(c1ncco1)c1cnc(NCc2c(F)ccc3c2CCO3)n2cnnc12 | 11 | 2.1 | hepatocyte CLint at 1 µM [3]: 1.4 µL/min/1e6 cells; Vd [4]: 3.1 L/kg; clearance [5]: 29 mL/min/kg; bioavailability [7]: 61%
Cc1cc(-c2cnc(NCc3c(F)ccc4c3CCO4)c3cn[nH]c(=O)c23)n(C)n1 | 24 | 3 | 
O=C1CC2(CC2)CN1c1cnc(NCc2c(F)ccc3c2CCO3)n2cnnc12 | < 3 | 1.9 | hepatocyte CLint at 1 µM [3]: 3.5 µL/min/1e6 cells; Vd [4]: 1.4 L/kg; clearance [5]: 23 mL/min/kg; bioavailability [7]: 68%
O=C1c2ccc(OCCN3CCCC3)cc2CN1c1cnc(NCc2c(F)ccc3c2CCO3)n2cnnc12 | 18 | 1.6 | Vd [4]: 6.5 L/kg; clearance [5]: 35 mL/min/kg; Papp ([6]; read-out: Papp): < 0.6 ×10⁻⁶ cm/s
O=C1c2ccccc2CN1c1cnc(NCc2c(F)ccc3c2CCO3)n2cnnc12 | 13 | 2.7 | hepatocyte CLint at 1 µM [3]: 2.7 µL/min/1e6 cells

SMILES | microsomal CLint at 1 µM [1] [µL/min/mg] | logD at 0.5 h [2] | other results
Cc1nc(CN(C)C)ccc1-c1cnc(NCc2c(F)ccc3c2CCO3)c2cn[nH]c(=O)c12 | 13 | 2 | Papp ([6]; read-out: Papp): < 0.6 ×10⁻⁶ cm/s
Cc1ncccc1-c1cnc(NCc2c(F)ccc3c2CCO3)c2ncc(=O)[nH]c12 | 21 | 2.8 | 
O=C1c2cnccc2CN1c1cnc(NCc2c(F)ccc3c2CCO3)n2cnnc12 | 5 | 1.6 | 
CNC(=O)c1ccc(-c2cnc(NCc3c(F)ccc4c3CCO4)c3cn[nH]c(=O)c23)c(C)n1 | 23 | 2.9 | hepatocyte CLint at 1 µM [3]: 3 µL/min/1e6 cells; Vd [4]: 2.7 L/kg; clearance [5]: 24 mL/min/kg; Papp ([6]; read-out: Papp): 54.1 ×10⁻⁶ cm/s; bioavailability [7]: 53%
C[C@@H]1CC(=O)N(c2cnc(NCc3c(F)ccc4c3CCO4)n3cnnc23)C1 | < 3 | 1.8 | 
O=C(Nc1cnc(NCc2c(F)ccc3c2CCO3)n2cnnc12)c1cccnc1 | < 3 | 2 | 
CNC(=O)c1cc(-c2cnc(NCc3c(F)ccc4c3CCO4)c3cn[nH]c(=O)c23)n(C)n1 | < 3 | 2.1 | 
Cc1nc(CO)ccc1-c1cnc(NCc2c(F)ccc3c2CCO3)c2cn[nH]c(=O)c12 | 11 | 2.4 | 
O=C(Nc1ccccc1)c1cnc(NCc2c(F)ccc3c2CCO3)n2cnnc12 | 14 | 4.1 | 
Cc1nn(C)cc1-c1cnc(NCc2c(F)ccc3c2CCO3)c2cn[nH]c(=O)c12 | 27 | 2.8 | 
Cc1ncccc1-c1cnc(NCc2c(F)ccc3c2CCO3)n2c(=O)[nH]nc12 | 36 | 3 | 
Cc1ncc(-c2cnc(NCc3c(F)ccc4c3CCO4)c3cn[nH]c(=O)c23)n1C | 10 | 1.9 | 
CN(C)C(=O)c1cc(-c2cnc(NCc3c(F)ccc4c3CCO4)c3cn[nH]c(=O)c23)n(C)n1 | 21 | 2.1 | 
CN(c1ccn(C)n1)c1cnc(NCc2c(F)ccc3c2CCO3)n2cnnc12 | 11 | 1.8 | hepatocyte CLint at 1 µM [3]: < 1 µL/min/1e6 cells; Vd [4]: 3 L/kg; clearance [5]: 29 mL/min/kg; bioavailability [7]: 67%
Cc1nccn1-c1cnc(NCc2c(F)ccc3c2CCO3)c2cn[nH]c(=O)c12 | 8 | 2.1 | 
COCCC(=O)Nc1cnc(NCc2c(F)ccc3c2CCO3)n2cnnc12 | < 3 | 1.4 | 
CC(=O)N1CCC(c2cnc(NCc3c(F)ccc4c3CCO4)c3cn[nH]c(=O)c23)CC1 | 207 | 2.9 | 
Cn1nccc1-c1cnc(NCc2c(F)ccc3c2CCO3)c2cn[nH]c(=O)c12 | 14 | 2.6 | 
CN(c1cnn(C)c1)c1cnc(NCc2c(F)ccc3c2CCO3)n2cnnc12 | 8.9 | 2.2 | 
Cc1ncccc1-c1cnc(NCc2c(F)ccc3c2CCO3)c2cn[nH]c(=O)c12 | 41 | 3 | hepatocyte CLint at 1 µM [3]: 4.6 µL/min/1e6 cells
Cn1cc(-c2cnc(NCc3c(F)ccc4c3CCO4)c3cn[nH]c(=O)c23)cn1 | 21 | 2.7 | 
O=C(Nc1cnc(NCc2c(F)ccc3c2CCO3)n2cnnc12)c1ccccc1 | 10 | 3 | 
CN(c1ccncc1)c1cnc(NCc2c(F)ccc3c2CCO3)n2cnnc12 | 5.2 | 1.4 | 
CN(c1cn(C)cn1)c1cnc(NCc2c(F)ccc3c2CCO3)n2cnnc12 | 5.7 | 1.6 | 
Fc1ccc2c(c1CNc1ncc(Oc3ccccc3)c3nncn13)CCO2 | 18 | 3.5 | 
